Converted amounts (≈) assume the structure as drawn. Some results are limits rather than exact numbers.

As usually defined, the kinetic solubility is solubility judged after dilution from a stock solution rather than from solid.

The conditions of this series: buffer; pH 7.4; 200.0 µM.
`O=C(CCC(=O)NC12CC3CC(CC(C3)C1)C2)NC1CCCCC1` registered a kinetic solubility of 17.2 µg/mL (≈ 51.7 µM).
Under `COC(=O)CCC(=O)N1CCCC(CO)(Cc2ccccc2F)C1` (centres undefined) stands more than 50.6 µg/mL; under `Cc1cccc(NS(=O)(=O)c2ccc3c(c2)oc(=O)n3C)c1C`, 1.5 µg/mL (≈ 4.51 µM); under `Cc1[nH]c2ccccc2c1CCNC(=O)c1ccc2nccnc2c1`, 41.1 µg/mL (≈ 124 µM).
Under `COc1ccc(C(=O)OCC(=O)c2c[nH]c3ccccc23)c(OC)c1` stands 4.5 µg/mL (≈ 13.3 µM).
The value for `CCOC(=O)C1CCCN(CCC(=O)Nc2ccccc2C)C1.Cl` (centres undefined) was more than 53.2 µg/mL; that for `COc1ccc(CCNCc2cccn2C)cc1OC.Cl` was more than 46.6 µg/mL.
Take `O=C(OCC(=O)N1CCCC1)c1ccc(O)cc1`: the solubility (kinetic) is more than 37.4 µg/mL.
The value for `CN(CC12CC3CC(CC(C3)C1)C2)C(=O)c1ccco1` was 37.8 µg/mL (≈ 138 µM); that for `CN(C(=O)NC1CCCCC1)c1ccccc1` was more than 34.8 µg/mL.
In turn, `O=C(c1ccncc1)N1CCN(S(=O)(=O)c2ccccc2F)CC1` showed a kinetic solubility of more than 52.4 µg/mL.
For `O=C(Nc1nonc1-c1ccc(F)cc1)c1ccco1`, the solubility (kinetic) is more than 41 µg/mL.
The molecule `CCNC(=O)c1ccccc1-c1nc(-c2ccccc2)no1` had a kinetic solubility of 35.4 µg/mL (≈ 121 µM).
The value for `CCOC(=O)c1sc(=NC(=O)/C=C/c2ccccc2)n(C)c1C` was less than 0.4 µg/mL; that for `C=CCSC1=NN2CCS(=O)(=O)N=C2S1` was more than 39.5 µg/mL; that for `Cc1ccc(S(=O)(=O)Nc2nc3ccccc3nc2N2CCOCC2)cc1` was more than 57.7 µg/mL.
Molecule `Cc1ccc(CC(=O)NC2CCCc3ccccc32)cc1C` (centres undefined) registered a solubility (kinetic) of 3.2 µg/mL (≈ 10.9 µM).
As for `Cc1ccc(CN2CC(C(=O)Nc3ncccc3C)CC2=O)cc1` (centres undefined), the solubility (kinetic) is more than 48.5 µg/mL.
Under `O=C(NCc1ccccc1)C1CC(=O)N(C2CCCCCC2)C1` (centres undefined) stands more than 47.2 µg/mL; under `CCCCOC(=O)C1=C(C)NC(=O)NC1c1ccc(OC)cc1` (centres undefined), 14.6 µg/mL (≈ 45.9 µM).
In the case of `CC(C)c1ccc(-c2csc3nc[nH]c(=O)c23)cc1`, the kinetic solubility was found to be 9.1 µg/mL (≈ 33.7 µM).
The value for `Cn1c(COc2ccccc2)nc2ccccc21` was 23.2 µg/mL (≈ 97.4 µM); that for `COc1ccc(CCCc2n[nH]c(=S)o2)cc1C` was more than 39.7 µg/mL.
The value for `O=C(COC(=O)/C=C/c1cccc(F)c1)Nc1cccc(S(=O)(=O)NC2=NCCCCC2)c1` was 18.3 µg/mL (≈ 38.6 µM); that for `O=C(c1ccc(S(=O)(=O)Nc2ccccc2F)cc1)N1CCN(c2ccccn2)CC1` was more than 66.1 µg/mL.
The value for `CCC(CO)Nc1ncnc2onc(-c3ccc(F)cc3)c12` (centres undefined) was more than 45.3 µg/mL.
`COC(=O)c1ccccc1NC(=O)Cn1cnc([N+](=O)[O-])c1`: the solubility (kinetic) is more than 45.6 µg/mL.
Molecule `Cc1cc(NCc2cccnc2)no1` yielded a solubility (kinetic) of 28 µg/mL (≈ 148 µM).
For `CC(Sc1nnc(NC2CC2)s1)C(=O)Nc1ccc(S(N)(=O)=O)cc1` (centres undefined), the solubility (kinetic) was more than 59.9 µg/mL.
Turning to `N#C/C(=C(/O)c1ccc(Cl)c([N+](=O)[O-])c1)c1nc2ccccc2[nH]1`, the kinetic solubility came to 0.6 µg/mL (≈ 1.76 µM).
The value for `CCn1c(=N)n(CC(O)COc2ccc(C)cc2)c2ccccc21.Cl` (centres undefined) was more than 54.3 µg/mL.
`CC(=O)c1cc2c(cc1NC(=O)C1CN(C(C)=O)c3ccccc3O1)OCO2` (centres undefined) returned a solubility (kinetic) of 6.3 µg/mL (≈ 16.5 µM).
The molecule `CCC(C)[C@H](NC(=O)N1CCCCC1)C(=O)OC` (some centres undefined) came in with a kinetic solubility of more than 38.5 µg/mL.
The value for `CCOC(=O)c1ccc2c(c1)N(CC)C(=O)c1ccccc1S2` was 13.2 µg/mL (≈ 40.3 µM); that for `COc1ccc(C)cc1NC(=O)CSCc1ccccc1C` was 8.6 µg/mL (≈ 27.3 µM).
`S=C(Nc1ccccc1)N1CCN(C/C=C/c2ccccc2)CC1` gave a kinetic solubility of more than 50.6 µg/mL.
Under `COc1cccc(-c2nc(CCl)cs2)c1OC.Cl` stands 32.4 µg/mL; under `O=C(Nc1ccc2c(c1)COC2=O)c1ccc(Cl)c(Cl)c1`, 3.5 µg/mL (≈ 10.9 µM); under `O=C(NCCCNC(=O)c1ccco1)c1cccc(F)c1`, more than 43.5 µg/mL.
`O=c1oc(-c2ccco2)nc2sc3c(c12)CCCCC3` yielded a solubility (kinetic) of less than 0.6 µg/mL.
`Cc1ccc2nc(-c3ccccc3)cc(C(=O)N3CC(C)OC(C)C3)c2c1` (centres undefined) showed a kinetic solubility of 49.1 µg/mL (≈ 136 µM).
The value for `COc1ccc(OC)c(-c2c3c([nH]c(=S)c2C#N)CCCC3)c1` was 10.4 µg/mL (≈ 31.9 µM).
Under `CCCCc1ccc(NC(=O)c2cnccn2)cc1` stands 4 µg/mL (≈ 15.7 µM); under `CCOC(=O)C1CCN(C(=O)c2cc3c(C)cc(C)cc3[nH]2)CC1`, 7.7 µg/mL (≈ 23.4 µM).
The value for `O=Cc1ccnc(-c2ccc(OC(=O)c3ccco3)cc2)n1` was 33.1 µg/mL (≈ 113 µM); that for `O=[N+]([O-])c1ccc(O)c(C(C#Cc2ccccc2)N2CCOCC2)c1` (centres undefined) was 12.9 µg/mL (≈ 38.1 µM).
With `CC(C)=CC1C(C(=O)NCCc2ccccc2)C1(C)C` (centres undefined), the solubility (kinetic) was 27.6 µg/mL (≈ 102 µM).
On to `NC(=O)c1ccc(Oc2ccc3c(c2)CCC3)c([N+](=O)[O-])c1`, for which the solubility (kinetic) is 5.4 µg/mL (≈ 18.1 µM).
As for `CN(C(=O)CSCC(=O)Nc1ccc(Cl)cc1)C1CCCCC1`, the solubility (kinetic) came to 5.9 µg/mL (≈ 16.6 µM).
Under `Cc1cccc(OCCCCN2CCNCC2)c1` stands 21.3 µg/mL (≈ 85.8 µM); under `O/N=C/c1cc2ccccc2n1Cc1ccccc1F`, 0.5 µg/mL (≈ 1.86 µM).
Under `Cc1ccc2c(NC(=O)c3ccco3)cccc2n1` stands 37.2 µg/mL (≈ 147 µM).
Take `COc1ccccc1C(=O)CN1C(=O)NC2(CCCCCC2)C1=O`: the solubility (kinetic) was found to be 12.9 µg/mL (≈ 39 µM).
The value for `N#Cc1ccc(C(=O)Nc2cccc(NC(=O)c3ccco3)c2)c(F)c1` was 2 µg/mL (≈ 5.73 µM).
For the molecule `O=C(Nc1ccc(F)cc1F)c1ccccc1NC(=O)C1CC=CCC1C(=O)O` (centres undefined), the kinetic solubility was 59.7 µg/mL (≈ 149 µM).
Under `Cc1cc(C)cc(C(=O)NCc2ccc3c(c2)OCO3)c1` stands 5.8 µg/mL (≈ 20.5 µM); under `CCOC(=O)C1CCN(C(=O)c2cc3cc(Cl)ccc3[nH]2)CC1`, 19 µg/mL (≈ 56.7 µM).
The value for `COc1cc(SC)ccc1C(=O)Nc1nc(C)cc(C)n1` was 40.7 µg/mL (≈ 134 µM).
Molecule `CCc1cccc(C)c1NC(=O)CSc1nnc(C)o1` came in with a kinetic solubility of more than 43.7 µg/mL.
`COc1ccc(C(=O)NCC(=O)OCC(=O)c2c(C)[nH]c3ccccc23)cc1OC` displayed a solubility (kinetic) of 6.1 µg/mL (≈ 14.9 µM).
Under `NC(=O)/C(=C/c1cccnc1)NC(=O)c1ccccc1` stands more than 40.1 µg/mL; under `S=C(NCCc1ccccc1)Nc1cnc2ccccc2c1`, 3.6 µg/mL (≈ 11.7 µM); under `Cc1ccc(C(=O)Nc2nc(C)c(C(=O)N(C)C)s2)o1`, 40.3 µg/mL (≈ 137 µM).
Under `COc1ccc2ccccc2c1CNC(C)c1ccccc1.O=C(O)C(=O)O` (centres undefined) stands more than 57.2 µg/mL; under `CC(Sc1cccc[n+]1[O-])c1ccccc1` (centres undefined), more than 34.7 µg/mL; under `COc1cccc(CNC(=S)Nc2cccc(Cl)c2C)c1`, 29.9 µg/mL (≈ 93.2 µM).
For `Cc1cccc(-c2ncc(S(=O)(=O)C(C)(C)C)c(N)n2)c1`, the solubility (kinetic) is 0.2 µg/mL (≈ 0.655 µM).
The value for `COc1ccc(OC)c(S(=O)(=O)N2CCN3CCCC3C2)c1` (centres undefined) was more than 49 µg/mL; that for `Clc1ccc(-c2csc(N3CCCCCC3)n2)cc1` was less than 0.3 µg/mL.
The value for `O=C(COC(=O)Cc1ccc([N+](=O)[O-])cc1)NCc1ccc2c(c1)OCO2` was 55.5 µg/mL (≈ 149 µM).
The value for `S=C(NCc1ccco1)NCC1CCCO1` (centres undefined) was 34.8 µg/mL (≈ 145 µM).
The molecule `CCS(=O)(=O)N1CCC(C(=O)NCc2ccc(OC)cc2)CC1` had a kinetic solubility of more than 51.1 µg/mL.
Under `c1ccc2nc3c(cc2c1)CCCCC3` stands 3.4 µg/mL (≈ 17.2 µM); under `COc1cccc(NC2=NCCCCC2)c1`, more than 32.7 µg/mL.

These data come from PubChem BioAssay AID1996.
